Test results taken from patent publication US4904659A, “Substituted quinoline derivatives and pharmaceutical compositions thereof” (Development Finance Corporation of New Zeland, priority 1985, dated 1990).
Read-outs that look alike come from different tables or passages of the source.

Legend:
[1] = Rm: lipophilic-hydrophilic balance from reversed phase partition chromatography; type: physicochemical; conditions: linearly related to 1-octanol/water partition coefficients
From the text: Rm-a measure of the compound's liphophilic-hydrophilic balance from reversed phase partition chromatography. Rm is linearly related to partition coefficients obtained in the 1-octanol/water system.

[2] = system: L1210 leukemia cells; assay: Growth inhibition of cultured L1210 leukemia cells (70 h, counted cell numbers); type: cell-based; conditions: Mus musculus
[3] = system: P388 leukemia; assay: In vivo antitumour activity against P388 leukemia (cells inoculated intraperitoneally); parameters: species or system mice (F1 hybrids of DBA/2J male x C57BL/6J female); conditions: for P388 in vivo ILS (percentage increase in lifespan) / P388 in vivo Active: P388 leukemia; for P388 in vivo ILS (percentage increase in lifespan): at optimal dose (OD), intraperitoneal, days 1, 5 and 9, control survival 11 days; for P388 in vivo Active: at the stated dose, ILS greater than 20% significant; for P388 in vivo number of long-term survivors: number in parentheses after ILS, out of a group of 6, P388 leukemia
Protocol: (§1) OD--The optimal drug dose (in milligrams per kilogram), administered intraperitoneally as a solution in 0.1 ml of 30% v/v ethyl alcohol in water on days 1, 5 and 9 after tumour inoculation. The drug is administered as a soluble acid addition salt.
(§2) ILSmax--The percentage increase in lifespan of treated animals over that of control animals injected with tumour alone. The average survival of control mice was 11 days (for P388 leukemia) and 17 days (for Lewis lung carcinoma) ILS values greater than 20% (P388 leukemia) and 40% (Lewis lung carcinoma) are considered statistically significant. Numbers in parentheses after ILS values indicate the number of long-term survivors (out of a group of 6).
(§3) Y--Implies a significant value of drug activity at the stated dose.
(§4) N--Implies no statistically significant activity.
(§5) Both of these tumour lines were obtained as frozen cell stocks from Mason Research Inc., USA and are passaged intraperitoneally in DBA/25 mice of either sex (P388) or subcutaneously in C57BL/65 mice of either sex (LL) according to the standard methods (Cancer Chemother. Reports., 3, Part 3, p9, 1972).
(§6) Groups of six mice (F1 hybrids of DBA/2J male x C57BL/6J female) were injected intraperitoneally (P388) or intravenously (tail vein, LL), with 10^6 tumour cells on day 0. When given in this manner, P388 cells grow diffusely in the peritoneal cavity, whereas the Lewis lung cells from distinct solid tumour nodules in the lungs. Antitumour activity is determined by published methods (European J. Cancer, 19, pp.1607-1613, 1983).

[4] = system: Lewis lung carcinoma; assay: In vivo antitumour activity against Lewis lung carcinoma (cells inoculated intravenously); parameters: species or system mice (F1 hybrids of DBA/2J male x C57BL/6J female); conditions: for LL in vivo ILS (percentage increase in lifespan) / LL in vivo Active: Lewis lung carcinoma; for LL in vivo ILS (percentage increase in lifespan): at optimal dose (OD), intraperitoneal, days 1, 5 and 9, control survival 17 days; for LL in vivo Active: at the stated dose, ILS greater than 40% significant; for LL in vivo number of long-term survivors: number in parentheses after ILS, out of a group of 6, Lewis lung carcinoma
Protocol: as §1, §2, §3, §4
LL--Is the Lewis lung carcinoma.
as §5, §6

[5] = system: bacterial cell lines; assay: In vitro antibacterial activity; type: cell-based; conditions: a number of bacterial cell lines
[6] = L1210 leukemia cells, 70 h, cell numbers reduced to 50% of controls, read-out: In vitro L1210 (IC50)

CN(C)CCCCNC(=O)c1cccc2ccc(-c3ccccc3)nc12 [Compound 3]
chromatographic logP [1]: 0.14 | IC50 [2, 6]: 0.68 µM | P388 in vivo ILS (percentage increase in lifespan) [3]: 93% | P388 in vivo Active [3]: Y (Implies a significant value of drug activity at the stated dose) | LL in vivo ILS (percentage increase in lifespan) [4]: 148% | LL in vivo Active [4]: Y (Implies a significant value of drug activity at the stated dose) | LL in vivo number of long-term survivors [4]: 2

CN(C)CCNC(=O)c1cccc2ccc(-c3ccc(NS(C)(=O)=O)cc3)nc12 [Compound 23]
chromatographic logP [1]: -0.38 | IC50 [2, 6]: 1.33 µM | P388 in vivo ILS (percentage increase in lifespan) [3]: < 20% | P388 in vivo Active [3]: N (Implies no statistically significant activity)

CN(C)CCNC(=O)c1cccc2ccc(-c3ccc(N)cc3)nc12 [Compound 21]
chromatographic logP [1]: -0.76 | IC50 [2, 6]: 0.2 µM | P388 in vivo ILS (percentage increase in lifespan) [3]: 28% | P388 in vivo Active [3]: Y (Implies a significant value of drug activity at the stated dose) | LL in vivo ILS (percentage increase in lifespan) [4]: 65% | LL in vivo Active [4]: Y (Implies a significant value of drug activity at the stated dose)

COc1ccc(-c2ccc3cccc(C(=O)NCCN(C)C)c3n2)cc1 [Compound 18]
chromatographic logP [1]: -0.16 | IC50 ([2]; L1210 leukemia cells, 70 h, cell numbers reduced to 50% of controls, read-out: In vitro L1210 (IC50), cell printed with unit nm): 1.29 µM | P388 in vivo ILS (percentage increase in lifespan) [3]: 42% | P388 in vivo Active [3]: Y (Implies a significant value of drug activity at the stated dose)

CN(C)CCNC(=O)c1cccc2ccc(-c3ccc(O)cc3)nc12 [Compound 19]
chromatographic logP [1]: -0.33 | IC50 [2, 6]: 0.027 µM | P388 in vivo ILS (percentage increase in lifespan) [3]: 22% | P388 in vivo Active [3]: Y (Implies a significant value of drug activity at the stated dose)

CN(C)CCNC(=O)c1cccc2ccc(-c3ccccc3Cl)nc12 [Compound 8]
chromatographic logP [1]: 0.15 | IC50 [2, 6]: 8.1 µM | P388 in vivo ILS (percentage increase in lifespan) [3]: < 20% | P388 in vivo Active [3]: N (Implies no statistically significant activity)

O=C(NCCNCCO)c1cccc2ccc(-c3ccccc3)nc12 [Compound 5]
P388 in vivo ILS (percentage increase in lifespan) [3]: < 20% | P388 in vivo Active [3]: N (Implies no statistically significant activity)

CN(C)CCNC(=O)c1cc([N+](=O)[O-])cc2ccc(-c3ccccc3)nc12 [Compound 26]
P388 in vivo ILS (percentage increase in lifespan) [3]: 63% | P388 in vivo Active [3]: Y (Implies a significant value of drug activity at the stated dose)

CN(C)CCNC(=O)c1cccc2ccc(-c3cccc(Cl)c3)nc12 [Compound 10]
chromatographic logP [1]: 0.05 | IC50 [2, 6]: 1.2 µM | P388 in vivo ILS (percentage increase in lifespan) [3]: 40% | P388 in vivo Active [3]: Y (Implies a significant value of drug activity at the stated dose) | LL in vivo ILS (percentage increase in lifespan) [4]: < 40% | LL in vivo Active [4]: N (Implies no statistically significant activity)

CN(C)CCCCCNC(=O)c1cccc2ccc(-c3ccccc3)nc12 [Compound 4]
chromatographic logP [1]: 0.21 | IC50 [2, 6]: 1.3 µM | P388 in vivo ILS (percentage increase in lifespan) [3]: < 20% | P388 in vivo Active [3]: N (Implies no statistically significant activity) | LL in vivo ILS (percentage increase in lifespan) [4]: < 40% | LL in vivo Active [4]: N (Implies no statistically significant activity)

CN(C)CCCNC(=O)c1cccc2ccc(-c3ccccc3)nc12 [Compound 2]
chromatographic logP [1]: 0.06 | IC50 [2, 6]: 1.14 µM | P388 in vivo ILS (percentage increase in lifespan) [3]: 71% | P388 in vivo Active [3]: Y (Implies a significant value of drug activity at the stated dose) | LL in vivo ILS (percentage increase in lifespan) [4]: < 40% | LL in vivo Active [4]: N (Implies no statistically significant activity)

COc1cccc(-c2ccc3cccc(C(=O)NCCN(C)C)c3n2)c1 [Compound 11]
IC50 [2, 6]: 0.86 µM | P388 in vivo ILS (percentage increase in lifespan) [3]: 46% | P388 in vivo Active [3]: Y (Implies a significant value of drug activity at the stated dose)

CN(C)CCNC(=O)c1cccc2ccc(-c3ccc(Cl)cc3)nc12 [Compound 14]
chromatographic logP [1]: 0.05 | IC50 [2, 6]: 1.17 µM | P388 in vivo ILS (percentage increase in lifespan) [3]: 52% | P388 in vivo Active [3]: Y (Implies a significant value of drug activity at the stated dose) | LL in vivo ILS (percentage increase in lifespan) [4]: 91% | LL in vivo Active [4]: Y (Implies a significant value of drug activity at the stated dose) | LL in vivo number of long-term survivors [4]: 4

CN(C)CCNC(=O)c1cccc2ccc(-c3ccc(-c4ccccc4)cc3)nc12 [Compound 17]
IC50 [2, 6]: 1.29 µM | P388 in vivo ILS (percentage increase in lifespan) [3]: < 20% | P388 in vivo Active [3]: N (Implies no statistically significant activity)

CN(C)CCNC(=O)c1cccc2ccc(-c3ccc(F)cc3)nc12 [Compound 13]
P388 in vivo ILS (percentage increase in lifespan) [3]: < 20% | P388 in vivo Active [3]: N (Implies no statistically significant activity)

CN(C)CCNC(=O)c1ccc(Cl)c2ccc(-c3ccccc3)nc12 [Compound 25]
P388 in vivo ILS (percentage increase in lifespan) [3]: 63% | P388 in vivo Active [3]: Y (Implies a significant value of drug activity at the stated dose)

CN(C)CCNC(=O)c1cccc2ccc(-c3ccc(Br)cc3)nc12 [Compound 15]
IC50 [2, 6]: 0.6 µM | P388 in vivo ILS (percentage increase in lifespan) [3]: 72% | P388 in vivo Active [3]: Y (Implies a significant value of drug activity at the stated dose)

CC(=O)Nc1ccc(-c2ccc3cccc(C(=O)NCCN(C)C)c3n2)cc1 [Compound 22]
IC50 [2, 6]: 0.74 µM | P388 in vivo ILS (percentage increase in lifespan) [3]: < 20% | P388 in vivo Active [3]: N (Implies no statistically significant activity)

CN(C)CCNC(=O)c1cccc2ccc(-c3ccc(I)cc3)nc12 [Compound 16]
P388 in vivo ILS (percentage increase in lifespan) [3]: 48% | P388 in vivo Active [3]: Y (Implies a significant value of drug activity at the stated dose)

CN(C)CCNC(=O)c1cccc2ccc(-c3cccnc3)nc12 [Compound 9]
chromatographic logP [1]: -0.58 | IC50 [2, 6]: 0.84 µM | P388 in vivo ILS (percentage increase in lifespan) [3]: 58% | P388 in vivo Active [3]: Y (Implies a significant value of drug activity at the stated dose) | LL in vivo ILS (percentage increase in lifespan) [4]: 52% | LL in vivo Active [4]: Y (Implies a significant value of drug activity at the stated dose) | LL in vivo number of long-term survivors [4]: 2

CN(C)CCNC(=O)c1cccc2ccc(-c3ccccc3)nc12 [Compound 1]
chromatographic logP [1]: -0.01 | IC50 ([2]; L1210, 70 h, read-out: In vitro L1210 (IC50)): 1.3 µM | P388 in vivo ILS (percentage increase in lifespan) [3]: 91% | P388 in vivo Active [3]: Y (Implies a significant value of drug activity at the stated dose) | LL in vivo ILS (percentage increase in lifespan) [4]: 70% | LL in vivo Active [4]: Y (Implies a significant value of drug activity at the stated dose) | LL in vivo number of long-term survivors [4]: 4 | antibacterial activity [5]: show in vitro activity against a number of bacterial cell lines

CN(C)CCNC(=O)c1cccc2ccc(-c3ccc([N+](=O)[O-])cc3)nc12 [Compound 20]
chromatographic logP [1]: -0.18 | IC50 [2, 6]: 0.29 µM | P388 in vivo ILS (percentage increase in lifespan) [3]: 71% | P388 in vivo Active [3]: Y (Implies a significant value of drug activity at the stated dose) | LL in vivo ILS (percentage increase in lifespan) [4]: 85% | LL in vivo Active [4]: Y (Implies a significant value of drug activity at the stated dose)

CN(C)CCNC(=O)c1cccc2ccc(-c3ccccn3)nc12 [Compound 7]
chromatographic logP [1]: -1.43 | IC50 [2, 6]: 1.64 µM | P388 in vivo ILS (percentage increase in lifespan) [3]: 73% | P388 in vivo Active [3]: Y (Implies a significant value of drug activity at the stated dose) | P388 in vivo number of long-term survivors [3]: 3 | LL in vivo ILS (percentage increase in lifespan) [4]: 91% | LL in vivo Active [4]: Y (Implies a significant value of drug activity at the stated dose)

CN(C)CCNC(=O)c1cccc2ccc(-c3ccncc3)nc12 [Compound 12]
chromatographic logP [1]: -0.87 | IC50 [2, 6]: 0.17 µM | P388 in vivo ILS (percentage increase in lifespan) [3]: 145% | P388 in vivo Active [3]: Y (Implies a significant value of drug activity at the stated dose) | P388 in vivo number of long-term survivors [3]: 2 | LL in vivo ILS (percentage increase in lifespan) [4]: 132% | LL in vivo Active [4]: Y (Implies a significant value of drug activity at the stated dose) | LL in vivo number of long-term survivors [4]: 3 | antibacterial activity [5]: show in vitro activity against a number of bacterial cell lines
